From PMC8963254, “Effects of Lysine N-ζ-Methylation in Ultrashort Tetrabasic Lipopeptides (UTBLPs) on the Potentiation of Rifampicin, Novobiocin, and Niclosamide in Gram-Negative Bacteria” (Antibiotics, 2022)
Where two headings read alike, the source gives them in different places.

Experiments:
K. pneumoniae 113250 [1] = type: cell-based, Klebsiella pneumoniae; conditions: for MICUTBLP: UTBLP alone
Method: (§1) The synergy of the UTBLPs with various antibiotics was assessed using checkerboard assay as previously described. Briefly, the combination of antibiotic and OMP at varying concentrations were incubated with bacterial inoculum (5 × 10^5 CFU/mL final concentration) at 37 °C for 18 h. Growth in the form of turbidity was confirmed using an EMax Plus microplate reader (Molecular Devices, Union City, CA, USA) at 590 nm. Fractional inhibitory concentration index (FICI) was used to evaluate the interaction between the antibiotic and the OMP. FICI is the sum of the FIC of the antibiotic and the FIC of the OMP. The FIC value is calculated by dividing the MIC of the agents in combination by the MIC of the agent alone. FICI ≤ 0.5 is synergistic, 0.5 < x ≤ 4 is additive, and >4 is antagonistic.

E. coli 94393 = type: cell-based, Escherichia coli; conditions: for MICUTBLP: UTBLP alone
Method: as §1

E. coli 94474 = type: cell-based, Escherichia coli; conditions: for MICUTBLP: UTBLP alone
Method: as §1

E. cloacae 118564 = type: cell-based, Enterobacter cloacae; conditions: for MICUTBLP: UTBLP alone
Method: as §1

S. aureus ATCC 29213 = type: cell-based, Staphylococcus aureus; conditions: ATCC 29213, 18 h
Method: (§2) The in vitro antibacterial activity of the UTBLPs was assessed against wild-type and clinically isolated bacterial strains. To obtain the MIC of the compounds, the microbroth dilution susceptibility assay was performed according to the Clinical and Laboratory Standards Institute (CLSI, Wayne, PA, USA) guidelines and as previously described. Briefly, the compounds at varying concentrations were incubated with bacterial inoculum (5 × 10^5 CFU/mL final concentration) at 37 °C for 18 h. Growth in the form of turbidity was confirmed using an EMax Plus microplate reader (Molecular Devices, San Jose, CA, USA) at 590 nm.

MRSA ATCC 33592 = type: cell-based, Staphylococcus aureus; conditions: ATCC 33592, 18 h
Method: as §2

E. faecalis ATCC 29212 [2] = type: cell-based, Enterococcus faecalis
Method: as §1

E. faecium ATCC 27270 [3] = type: cell-based, Enterococcus faecium; conditions: ATCC 27270, 18 h
Method: as §2

[4] = system: P. aeruginosa PA259-96196; type: cell-based, Pseudomonas aeruginosa; conditions: for MICUTBLP: UTBLP alone
Method: as §1

P. aeruginosa PAO1 = type: cell-based, Pseudomonas aeruginosa; conditions: for MICUTBLP: UTBLP alone
Method: as §1

[5] = system: P. aeruginosa PA262-101856; type: cell-based, Pseudomonas aeruginosa; conditions: for MICUTBLP: UTBLP alone
Method: as §1

[6] = system: P. aeruginosa PA259-96196; assay: microbe, parasite or virus in culture; type: cell-based, Pseudomonas aeruginosa; conditions: PA259-96196, 18 h
How it was run: (§3)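 Minimum inhibitory concentration came from a CLSI broth dilution assay: 18 h at 37 °C, inoculum 5 × 10^5 CFU/mL final.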

[7] = system: P. aeruginosa PA262-101856; assay: microbe, parasite or virus in culture; type: cell-based, Pseudomonas aeruginosa; conditions: PA262-101856, 18 h
How it was run: as §3

E. faecalis ATCC 29212 [8] = type: cell-based, Enterococcus faecalis; conditions: ATCC 29212, 18 h
Method: as §2

MSSE 81388 = type: cell-based, Staphylococcus epidermidis; conditions: 18 h
Method: as §2

MRSE 61589 = type: cell-based, Staphylococcus epidermidis; conditions: 61589, 18 h
Method: as §2

K. pneumoniae 113250 [9] = assay: microbe, parasite or virus in culture; type: cell-based, Klebsiella pneumoniae; conditions: 113250, 18 h
How it was run: as §3

E. faecium ATCC 27270 [10] = type: cell-based, Enterococcus faecium
Method: as §1

[11] = UTBLP in combination with novobiocin
[12] = UTBLP in combination with rifampicin
[13] = novobiocin in combination with the UTBLP
[14] = rifampicin in combination with the UTBLP
[15] = UTBLP alone, plate with chloramphenicol
[16] = UTBLP in combination with chloramphenicol
[17] = chloramphenicol in combination with the UTBLP

CCCCCCCC(=O)N[C@@H](CCCCNC)C(=O)NCCCN(CCCNC(=O)[C@H](CCCCNC)NC(=O)CCCCCCC)CC(=O)N[C@@H](CCCCNC)C(N)=O [UTBLP 2]
>128 µg/mL: MIC (MRSA ATCC 33592) | MIC (E. faecium ATCC 27270 [3]) | MIC (E. faecalis ATCC 29212 [8])
512 µg/mL: MICantibiotic [MICcombo] [4, 13] | MICantibiotic [MICcombo] [5, 13] | MICantibiotic [MICcombo] [5, 14]
16 µg/mL: MICUTBLP [MICcombo] (K. pneumoniae 113250 [1]; [11]) | MICUTBLP [MICcombo] (K. pneumoniae 113250 [1]; [12]) | MICUTBLP [MICcombo] (E. coli 94393; [11]) | MICUTBLP [MICcombo] (E. coli 94393; [12]) | MICUTBLP [MICcombo] (E. coli 94474; [11]) | MICUTBLP [MICcombo] (E. coli 94474; [12]) | MICUTBLP [MICcombo] (E. cloacae 118564; [11]) | MICUTBLP [MICcombo] (E. cloacae 118564; [12]) | MICUTBLP [MICcombo] [4, 11] | MICUTBLP [MICcombo] [4, 12] | MICUTBLP [MICcombo] (P. aeruginosa PAO1; [11]) | MICUTBLP [MICcombo] [5, 11]
1 µg/mL: MICantibiotic [MICcombo] (E. coli 94393; [13])
Synergy (FICI ≤ 0.5 is synergistic): Interpretation (K. pneumoniae 113250 [1]; UTBLP + novobiocin) | Interpretation (K. pneumoniae 113250 [1]; UTBLP + rifampicin) | Interpretation (E. coli 94393; UTBLP + novobiocin) | Interpretation (E. coli 94393; UTBLP + rifampicin) | Interpretation (E. coli 94474; UTBLP + novobiocin) | Interpretation (E. coli 94474; UTBLP + rifampicin) | Interpretation (E. cloacae 118564; UTBLP + novobiocin) | Interpretation (E. cloacae 118564; UTBLP + rifampicin) | Interpretation ([4]; UTBLP + novobiocin) | Interpretation ([4]; UTBLP + rifampicin) | Interpretation (P. aeruginosa PAO1; UTBLP + chloramphenicol) | Interpretation (P. aeruginosa PAO1; UTBLP + novobiocin)
0.5 µg/mL: MICantibiotic [MICcombo] (E. coli 94474; [14])
4 µg/mL: MICantibiotic [MICcombo] (K. pneumoniae 113250 [1]; [13]) | MICantibiotic [MICcombo] (K. pneumoniae 113250 [1]; [14]) | MICantibiotic [MICcombo] (E. coli 94474; [13]) | MICantibiotic [MICcombo] [4, 14]
> 128 µg/mL: MICUTBLP (K. pneumoniae 113250 [1]; plate with novobiocin) | MICUTBLP (K. pneumoniae 113250 [1]; plate with rifampicin) | MICUTBLP (E. coli 94393; plate with novobiocin) | MICUTBLP (E. coli 94393; plate with rifampicin) | MICUTBLP (E. coli 94474; plate with novobiocin) | MICUTBLP (E. coli 94474; plate with rifampicin) | MICUTBLP (E. cloacae 118564; plate with novobiocin) | MICUTBLP (E. cloacae 118564; plate with rifampicin) | MICUTBLP (E. faecalis ATCC 29212 [2]; [15]) | MICUTBLP ([4]; plate with novobiocin) | MICUTBLP ([4]; plate with rifampicin) | MICUTBLP (P. aeruginosa PAO1; plate with chloramphenicol) | MICUTBLP (P. aeruginosa PAO1; plate with niclosamide) | MICUTBLP (P. aeruginosa PAO1; plate with novobiocin) | MICUTBLP (P. aeruginosa PAO1; plate with rifampicin) | MICUTBLP ([5]; plate with novobiocin) | MICUTBLP ([5]; plate with rifampicin) | MIC [6] | MIC [7] | MIC (K. pneumoniae 113250 [9]) | MICUTBLP (E. faecium ATCC 27270 [10]; [15])
64 µg/mL: MIC (MSSE 81388) | MIC (MRSE 61589)
0.125 µg/mL: MICantibiotic [MICcombo] (E. coli 94393; [14])
Additive (0.5 < x ≤ 4 is additive): Interpretation (E. faecalis ATCC 29212 [2]; UTBLP + chloramphenicol) | Interpretation (P. aeruginosa PAO1; UTBLP + niclosamide) | Interpretation (P. aeruginosa PAO1; UTBLP + rifampicin) | Interpretation ([5]; UTBLP + novobiocin) | Interpretation ([5]; UTBLP + rifampicin) | Interpretation (E. faecium ATCC 27270 [10]; UTBLP + chloramphenicol)
128 µg/mL: MIC (S. aureus ATCC 29213)
256 µg/mL: MICantibiotic [MICcombo] (P. aeruginosa PAO1; [13])
1024 µg/mL: MICantibiotic [MICcombo] (P. aeruginosa PAO1; niclosamide in combination with the UTBLP)
0.25 µg/mL: MICUTBLP [MICcombo] (E. faecalis ATCC 29212 [2]; [16]) | MICUTBLP [MICcombo] (P. aeruginosa PAO1; UTBLP in combination with niclosamide) | MICUTBLP [MICcombo] [5, 12] | MICUTBLP [MICcombo] (E. faecium ATCC 27270 [10]; [16])
8 µg/mL: MICantibiotic [MICcombo] (E. cloacae 118564; [13]) | MICchloramphenicol [MICcombo] (E. faecalis ATCC 29212 [2]; [17]) | MICUTBLP [MICcombo] (P. aeruginosa PAO1; [16]) | MICUTBLP [MICcombo] (P. aeruginosa PAO1; [12]) | MICantibiotic [MICcombo] (P. aeruginosa PAO1; [17]) | MICantibiotic [MICcombo] (P. aeruginosa PAO1; [14]) | MICchloramphenicol [MICcombo] (E. faecium ATCC 27270 [10]; [17])
